Literature values as cited in patent US9034354B2, “Bacteriostatic and anti-collagenolytic dental materials through the incorporation of polyacrylic acid modified CuI nanoparticles” (MUSC Foundation for Research Development, priority 2012, dated 2015).

Tested on: Streptococcus mutans
Settings: discs of composite resin containing MDPB versus discs without MDPB, in the presence of Streptococcus mutans

C=C(C)C(=O)OCCCCCCCCCCCC[n+]1ccccc1.[Br-] [MDPB, 12-methacryloyloxydodecylpyridinium bromide]
numbers of bacteria recovered from the discs reduced by: 97%
